Laboratory results reported in article PMC11042242, “1,5-Disubstituted tetrazoles as PD-1/PD-L1 antagonists” (RSC Medicinal Chemistry, 2024).

What was measured:
PD-1/PD-L1 complex = PD-1/PD-L1 complex (Homo sapiens, UniProt Q9NZQ7); settings: for IC50: read-out: IC50 (nM), SAR toward PD-L1 based on the HTRF methodology; for IC50 / IC50 (nM), SAR toward PD-L1 based on the HTRF methodology: 5 nM hPD-L1, 50 nM hPD-1, 10f, 10l, 10p IC50 measured with 6 concentrations, remaining compounds estimated from scouting mode (50 and 5 nM) by translation of average Hill's fits; for activity towards dissociating the PD-1/PD-L1 complex: one-point experiment at 50 and 5 nM concentrations of each inhibitor
Procedure: Homogenous Time Resolved Fluorescence
HTRF was performer using the certified Cis-Bio assay according to the manufacturer’s guidelines.
experiments were performed at 5 nM of hPD-L1 and 50 nM of hPD-1 in the final formulation at 20 µL final
After mixing all components according to Cis-Bio protocol, the plate was left for 1h incubation
at room temperature followed by TR-FRET measurement on Tecan Spark 20M. To determine the activity of tested
compounds data was collected for 2 different concentrations of the ligand: 50 nM and 5 nM in the final volume.
All measurements were performed on two individual
dilution series, unless states otherwise. Collected data was background subtracted on the negative control,
normalized on the positive control, averaged and for IC50 determination fitted with normalized Hill’s equation to
determine the IC50 value using Mathematica 12. For remaining compounds, which were measured in scouting
mode, the inhibitory constants were approximated by translation of the average Hill’s fits of fully described
compounds to match the experimental datapoints. Since all compounds reported here are closely related, the slope
of Hill’s fit that determines the shape of the curve is therefore similar across them.

human PD-L1 (hPD-L1) = target: T1, human PD-L1 (hPD-L1) (Homo sapiens, UniProt Q9NZQ7); assay: 1H NMR titration experiment with hPD-L1; assay type: binding; settings: molar ratio of protein to inhibitor 1 : 1; PBS pH 7.4, 0.2 mM PD-L1
T1 construct: PD-L1 gene (amino acids 18-134); made in house
Procedure: The corresponding behaviour is characteristic of hPD-L1 oligomerization, previously observed by our group with BMS reference compounds.[20]
Fig. 2 Aliphatic part of the ^1H NMR spectra of PD-L1 with tetrazole-based inhibitors. ^1H NMR spectra of hPD-L1 protein (blue), PD-L1 and compounds: (A) 10f, (B) 10p, and (C) 10l in protein to inhibitor molar ratios of 1 : 1 (red) and 1 : 10 (green), respectively.
NMR spectra were recorded in PBS pH 7.4 containing 10% (v/v) of D2O added to the samples to provide the lock signal. Water suppression was carried out using the WATERGATE pulse sequence. All the spectra were recorded at 300 K using a Bruker Avance III 600 MHz spectrometer. The spectra were recorded at the protein/ligand at the molar ratio 1:1 and 1:10. The sample were prepared by adding the appropriate amounts of inhibitor, from 50 mM ligand stock solution in DMSO-d6, to the protein solution of PD-L1 at a concentration of 0.2 mM. Spectra were visualized using TopSpin 3.2
Protein expression and purification
E. coli strain BL21 was transformed with pET-21b plasmid carrying PD-L1 gene (amino acids 18-134). The bacteria were cultured in LB at 37°C until OD600nm of 0.6 when the recombinant protein production was induced with 1 mM IPTG. The protein production was continued overnight. Inclusion bodies were collected by centrifugation, washed twice with 50 mM Tris-HCl pH 8.0 containing 200 mM NaCl, 10 mM EDTA, 10 mM 2-mercaptoethanol and 0.5% Triton X-100, followed by a single wash with the same buffer but with no Triton X-100. The washed inclusion bodies were resuspended overnight in 50 mM Tris-HCl pH 8.0, 6 M GuHCl, 200 mM NaCl and 10 mM 2-mercaptoethanol and clarified with centrifugation. Refolding of PD-L1 was performed by drop-wise dilution into 0.1 M Tris-HCl pH 8.0 containing 1 M L-arginine hydrochloride, 0.25 mM oxidized glutathione and 0.25 mM reduced glutathione. […]
7.4. The quality of the refolded protein was evaluated by SDS-PAGE and NMR. […]

PD-L1 = test system: PD-L1; parameters: method as in PMID 35585982; settings: printed in Fig. 1B, patented PD-L1 dimerizers by Maxinovel Pharma; cited from earlier work

PD-1/PD-L1 complex, sequence (Q9NZQ7 19-238 limits assumed, one chain of several): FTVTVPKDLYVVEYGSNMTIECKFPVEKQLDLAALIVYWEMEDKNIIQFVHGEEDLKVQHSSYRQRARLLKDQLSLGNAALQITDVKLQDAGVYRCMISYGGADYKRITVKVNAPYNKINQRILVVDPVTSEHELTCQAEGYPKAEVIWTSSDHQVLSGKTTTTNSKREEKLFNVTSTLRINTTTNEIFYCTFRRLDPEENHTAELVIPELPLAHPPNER
T1 sequence (Q9NZQ7 18-134): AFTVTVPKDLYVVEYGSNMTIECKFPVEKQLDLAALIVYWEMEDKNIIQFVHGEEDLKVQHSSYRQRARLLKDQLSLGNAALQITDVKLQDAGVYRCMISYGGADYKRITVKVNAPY

| Compound | IC50 (PD-1/PD-L1 complex) [nM] | IC50 (nM), SAR toward PD-L1 based on the HTRF methodology (PD-1/PD-L1 complex) | other results |
| --- | --- | --- | --- |
| Cc1c(/C=C/n2nnnc2C(C)NCCCO)cccc1-c1ccccc1 (centres unmarked) [10g] | 1800 |  |  |
| Cc1c(/C=C/n2nnnc2C(CCl)NCc2ccco2)cccc1-c1ccccc1 (centres unmarked) [10c] |  | Inactive |  |
| Cc1c(/C=C/n2nnnc2C(CC(C)C)NCCN2CCOCC2)cccc1-c1ccccc1 (centres unmarked) [10a] |  | Inactive |  |
| Cc1c(COc2cc(OCc3cccc(C#N)c3)c(CN3C[C@H](O)C[C@@H]3C(=O)O)cc2Cl)cccc1-c1ccc2c(c1)OCCO2 [BMS-1166, reference compound] |  |  | undissociated PD-1/PD-L1 complex (PD-1/PD-L1 complex; one-point experiment, 50 and 5 nM concentrations of inhibitor): 42.1 ± 6.4% |
| CCNCc1nnnn1/C=C/c1cccc(-c2ccccc2)c1C [10f] | 408 |  | hPD-L1 oligomerization upon addition of the ligand (broadening of hPD-L1 proton signals) (human PD-L1 (hPD-L1)): protein oligomerization; activity towards dissociating the PD-1/PD-L1 complex (PD-1/PD-L1 complex): better activity |
| Cc1c(/C=C/c2cc(CNC(C)(CO)C(=O)O)ccc2C(F)(F)F)cccc1-c1ccc2c(c1)OCCO2 (centres unmarked) [MAX-10181] |  |  | IC50 (PD-L1): 18 nM |
| Cc1c(/C=C/n2nnnc2CN[C@]23CC4CC(C[C@@](O)(C4)C2)C3)cccc1-c1ccccc1 [10h] |  | Inactive |  |
| Cc1c(/C=C/n2nnnc2CNCC(C)(C)C)cccc1-c1ccccc1 [10e] |  | Inactive |  |
| Cc1c(/C=C/n2nnnc2C(NCc2ccncc2)C2CC2)cccc1-c1ccccc1 (centres unmarked) [10d] | 1770 |  |  |
| COc1cccc(CNC(c2nnnn2/C=C/c2cccc(-c3ccccc3)c2C)C(C)C)c1OC (centres unmarked) [10b] |  | Inactive |  |

The next lines start with results.

| IC50 (PD-1/PD-L1 complex) [nM] | IC50 (nM), SAR toward PD-L1 based on the HTRF methodology (PD-1/PD-L1 complex) | Compound | other results |
| --- | --- | --- | --- |
| 1000 |  | Cc1c(/C=C/n2nnnc2CN2CCOC2)cccc1-c1ccccc1 [10k] |  |
|  | Inactive | Cc1c(/C=C/n2nnnc2CN[C@]23CC4CC(C[C@@](O)(C4)C2)C3)cccc1-c1ccc2c(c1)OCCO2 [10m] |  |
| 1130 |  | Cc1c(/C=C/n2nnnc2CNCCCCO)cccc1-c1ccc2c(c1)OCCO2 [10o] |  |
| 460 |  | Cc1c(/C=C/n2nnnc2CN2CCCCOC2)cccc1-c1ccccc1 [10i] |  |
| 2850 |  | Cc1c(/C=C/n2nnnc2CNCCCCCO)cccc1-c1ccc2c(c1)OCCO2 [10n] |  |
| 1130 |  | Cc1c(/C=C/n2nnnc2CN2CCCOC2)cccc1-c1ccc2c(c1)OCCO2 [10r] |  |
| 944 |  | Cc1c(/C=C/n2nnnc2CN2CCCOC2)cccc1-c1ccccc1 [10l] | hPD-L1 oligomerization upon addition of the ligand (broadening of hPD-L1 proton signals) (human PD-L1 (hPD-L1)): protein oligomerization; activity towards dissociating the PD-1/PD-L1 complex (PD-1/PD-L1 complex): better activity |
| 1840 |  | Cc1c(/C=C/n2nnnc2CNCCCCCO)cccc1-c1ccccc1 [10j] |  |
| 254 |  | Cc1c(/C=C/n2nnnc2C(C)NCCCO)cccc1-c1ccc2c(c1)OCCO2 (centres unmarked) [10p] | hPD-L1 oligomerization upon addition of the ligand (broadening of hPD-L1 proton signals) (human PD-L1 (hPD-L1)): protein oligomerization; activity towards dissociating the PD-1/PD-L1 complex (PD-1/PD-L1 complex): better activity |
|  | Inactive | Cc1c(/C=C/n2nnnc2CNCCO)cccc1-c1ccc2c(c1)OCCO2 [10q] |  |
